In brackets after ≈: the same amount, converted by molar mass.
Experiments:
Experiment in all cases: Antibacterial activity, concentration required for 50% inhibition
Format in all cases: cell-based
Strep.sp. Leo EG 2 = system: Strep.sp. Leo EG 2
Source text: (§1) Now, however, it has been found, that the compounds of the present invention both in vitro and in vivo show interesting antimicrobial and pharmacokinetic properties. Thereby the compounds of the invention can be used in the treatment of bacterial infections in humans and animals.

[1] = system: Bacteroides fragilis Leo JA 2; conditions: LEOJA2
Source text: as §1

Strep.pyogenes Leo EC = conditions: Streptococcus pyogenes
Source text: as §1

[2] = system: Staph.aureus Leo CC 178 A; conditions: Staphylococcus aureus, LEOCC178A
Source text: as §1

[3] = system: Staph.aureus Leo CC 178 B; conditions: Staphylococcus aureus, LEOCC178B
Source text: as §1

| SMILES | IC50 (Strep.sp. Leo EG 2) [µg/mL] | IC50 [1] [µg/mL] | IC50 (Strep.pyogenes Leo EC) [µg/mL] | IC50 [2] [µg/mL] | IC50 [3] [µg/mL] |
| --- | --- | --- | --- | --- | --- |
| CC(C)CCC/C(C(=O)O)=C1/[C@@H](SC(=O)c2ccccc2)C[C@@]2(C)[C@H]1C[C@@H](O)[C@H]1[C@@]3(C)CC[C@@H](O)[C@@H](C)[C@@H]3CC[C@@]12C [Example 4, 16-Deacetoxy-16β-benzoylthio-24,25-dihydrofusidic acid] | 0.63 (≈ 1.06 µM) | 1.6 (≈ 2.68 µM) | 0.2 (≈ 0.335 µM) | 1.6 (≈ 2.68 µM) | 0.5 (≈ 0.838 µM) |
| CC(=O)S[C@H]1C[C@@]2(C)[C@@H](C[C@@H](O)[C@H]3[C@@]4(C)CC[C@H](Br)[C@@H](C)[C@@H]4CC[C@@]32C)/C1=C(\CCC=C(C)C)C(=O)O [Example 21, 3-Deoxy-3β-bromo-16-deacetoxy-16β-(acetylthio)fusidic acid] | 1 (≈ 1.68 µM) | 3.2 (≈ 5.37 µM) | 0.32 (≈ 0.537 µM) | 4 (≈ 6.71 µM) | 0.13 (≈ 0.218 µM) |
| CC(=O)S[C@H]1C[C@@]2(C)[C@@H](CC(=O)[C@H]3[C@@]4(C)CC[C@@H](O)[C@@H](C)[C@@H]4CC[C@@]32C)/C1=C(\CCCC(C)C)C(=O)O [Example 8] | 2 (≈ 3.75 µM) | 2 (≈ 3.75 µM) | 1 (≈ 1.88 µM) | 16 (≈ 30 µM) | 0.02 (≈ 0.0375 µM) |
| CC(=O)O[C@H]1C[C@@]2(C)[C@@H](C[C@@H](O)[C@H]3[C@@]4(C)CC[C@@H](O)[C@@H](C)[C@@H]4CC[C@@]32C)/C1=C(\CCC=C(C)C)C(=O)O [Fusidic acid] | 1.6 (≈ 3.1 µM) | 1.6 (≈ 3.1 µM) | 0.63 (≈ 1.22 µM) | 16 (≈ 31 µM) | 0.025 (≈ 0.0484 µM) |
| CC(=O)S[C@H]1C[C@@]2(C)[C@@H](CC(=O)[C@H]3[C@@]4(C)CC[C@@H](O)[C@@H](C)[C@@H]4CC[C@@]32C)/C1=C(\CCC=C(C)C)C(=O)O [Example 7, 11-keto-16-deacetoxy-16β-(acetylthio)fusidic acid] | 2 (≈ 3.77 µM) | 2 (≈ 3.77 µM) | 1 (≈ 1.88 µM) | 20 (≈ 37.7 µM) | 0.02 (≈ 0.0377 µM) |
| CC(=O)S[C@H]1C[C@@]2(C)[C@@H](C[C@@H](O)[C@H]3[C@@]4(C)CC[C@@H](O)[C@@H](C)[C@@H]4CC[C@@]32C)/C1=C(\CCCC(C)C)C(=O)O [Example 3, 16-Deacetoxy-16β-acetylthio-24,25-dihydrofusidic acid] | 0.25 (≈ 0.467 µM) | 0.5 (≈ 0.935 µM) | 0.16 (≈ 0.299 µM) | 3.2 (≈ 5.98 µM) | 0.008 (≈ 0.015 µM) |
| CC(=O)S[C@H]1C[C@@]2(C)[C@@H](C[C@@H](O)[C@H]3[C@@]4(C)CC[C@H](Cl)[C@@H](C)[C@@H]4CC[C@@]32C)/C1=C(\CCC=C(C)C)C(=O)O [Example 29] | 1.6 (≈ 2.9 µM) | 1.3 (≈ 2.36 µM) | 0.63 (≈ 1.14 µM) | 2 (≈ 3.63 µM) | 0.5 (≈ 0.907 µM) |
| CC(=O)S[C@H]1C[C@@]2(C)[C@@H](C[C@@H](O)[C@H]3[C@@]4(C)CC[C@H](N=[N+]=[N-])[C@@H](C)[C@@H]4CC[C@@]32C)/C1=C(\CCCC(C)C)C(=O)O [Example 28] | 0.63 (≈ 1.13 µM) | 1.6 (≈ 2.86 µM) | 0.63 (≈ 1.13 µM) | 2 (≈ 3.57 µM) | 1.6 (≈ 2.86 µM) |
| CC(=O)S[C@H]1C[C@@]2(C)[C@@H](C[C@@H](O)[C@H]3[C@@]4(C)CC[C@H](Br)[C@@H](C)[C@@H]4CC[C@@]32C)/C1=C(\CCCC(C)C)C(=O)O [Example 22, 3-deoxy-3β-bromo-16-deacetoxy-16β-acetylthio-24,25-dihydrofusidic acid] | 1.6 (≈ 2.68 µM) | 2 (≈ 3.35 µM) | 0.79 (≈ 1.32 µM) | 1.6 (≈ 2.68 µM) | 0.079 (≈ 0.132 µM) |
| CC(=O)S[C@H]1C[C@@]2(C)[C@@H](C[C@@H](O)[C@H]3[C@@]4(C)CC[C@@H](N=[N+]=[N-])[C@@H](C)[C@@H]4CC[C@@]32C)/C1=C(\CCCC(C)C)C(=O)O [Example 36, 3-Deoxy-3α-azido-16-deacetoxy-16β-acetylthio-24,25-dihydrofusidic acid] | 2 (≈ 3.57 µM) | 5 (≈ 8.93 µM) | 0.4 (≈ 0.715 µM) | 5 (≈ 8.93 µM) | 0.063 (≈ 0.113 µM) |
| CC(=O)S[C@H]1C[C@@]2(C)[C@@H](C[C@@H](O)[C@H]3[C@@]4(C)CC[C@@H](O)[C@@H](C)[C@@H]4CC[C@@]32C)/C1=C(\CCC=C(C)C)C(=O)O [Example 1, 16-Deacetoxy-16β-(acetylthio)fusidic acid] | 0.2 (≈ 0.375 µM) | 0.79 (≈ 1.48 µM) | 0.2 (≈ 0.375 µM) | 6.3 (≈ 11.8 µM) | 0.01 (≈ 0.0188 µM) |
